Measured values from US20130059830A1, “NOVEL PROLYLCARBOXYPEPTIDASE INHIBITORS” (priority 2010, published 2013).

How the values were obtained:
[1] = target: T1, human PrCP (Homo sapiens, UniProt P42785); assay: Prolylcarboxypeptidase (PRCP) enzyme activity assay, fluorescence intensity kinetic assay, human enzyme; assay type: biochemical; conditions: recombinant human PrCP, 15 uM substrate, pH 5.5, 37° C.
T1 construct: made in house
T1 sequence (P42785 46-496): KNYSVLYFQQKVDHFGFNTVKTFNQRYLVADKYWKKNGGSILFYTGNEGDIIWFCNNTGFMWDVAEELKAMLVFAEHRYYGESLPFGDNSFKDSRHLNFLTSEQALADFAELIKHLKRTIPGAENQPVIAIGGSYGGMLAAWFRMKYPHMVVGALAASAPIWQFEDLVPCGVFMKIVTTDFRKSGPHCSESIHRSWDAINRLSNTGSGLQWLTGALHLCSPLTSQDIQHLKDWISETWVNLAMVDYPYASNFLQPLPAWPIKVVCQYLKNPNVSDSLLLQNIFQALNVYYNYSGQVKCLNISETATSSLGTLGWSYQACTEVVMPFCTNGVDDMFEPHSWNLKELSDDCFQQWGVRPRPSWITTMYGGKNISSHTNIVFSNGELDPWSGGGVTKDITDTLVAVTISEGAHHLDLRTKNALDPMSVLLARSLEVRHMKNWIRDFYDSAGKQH
Procedure: The potency of compounds of formula I against PrCP was determined by a fluorescence intensity kinetic assay measuring the IC50 values of PrCP inhibitor test compounds. […] The assay was run on a Perkin Elmer Envision 2103 plate reader using a 320 nm excitation filter and a 405 emission filter. The assay was performed using a Hamilton Star liquid handling workstation. The assay employed the internally quenched fluorescent substrate (1S)-1-carboxy-5-[(2,4-dinitrophenyl)amino]pentyl N-[(7-methoxy-2-oxo-2H-chromen-4-yl)acetyl]-L-alanyl-L-prolinate prepared in house.
The assay was run in a 384-well microtiter plate at 37° C. with a total volume of 50 uL. Final assay concentrations were 0.13 nM human PrCP (CHO) or 0.09 nM mouse PrCP (CHO) enzyme, 15 uM substrate and varying concentrations of inhibitor in buffer containing 10 mM NaOAc, 100 mM NaCl and 19.5 ug/mL BSA at pH 5.5. The assay also contained 2% DMSO used to solubilize the substrate and inhibitor. Inhibitors were prepared in 100% DMSO and serial diluted (in 100% DMSO) to generate 11 point titration curves. Either 39 uL of human or mouse PrCP enzyme was added to the wells of the assay plate, followed by a 1 uL addition of the serially diluted inhibitor and mixed three times using a 30 uL mix volume. The reaction was initiated by the addition of 10 uL substrate and mixed three times using a 30 uL mix volume. The reactions were monitored continuously over 25 min at 37° C. to obtain initial velocities. […] values were calculated by comparing the resulting rates of reaction of the inhibited and control initial velocities.
The enzymes were diluted in a mixture of 10 mM NaOAc (pH 5.5)/100 mM NaCl buffer containing 25 ug/mL bovine serum albumin that had been warmed to 37° C. in a water bath. The PrCP inhibitor test compounds were plated in 100% DMSO with a highest concentration of 500 uM. There were 12 dilution points for each compound tested including a blank with DMSO only. The test compounds from the source titration plate were transferred into the assay reaction plate at a 1:50 dilution using the Hamilton Star workstation and mixed, resulting in a final concentration for the test compounds in the range of 10,000 to 0.066 nM. Likewise, two control compounds were similarly titrated and included in each assay, with final starting concentrations starting at 10,000 nM and 200 nM, respectively. The reaction was initiated by the addition of 75 uM of the (1S)-1-carboxy-5-[(2,4-dinitrophenyl)amino]pentyl N-[(7-methoxy-2-oxo-2H-chromen-4-yl)acetyl]-L-alanyl-L-prolinate substrate, which was diluted in a mixture of 10 mM NaOAc (pH 5.5)/100 mM NaCl that had been warmed to 37° C. in a water bath, dispensed using the Hamilton Star workstation and mixed. The substrate was solubilized in 100% DMSO prior to dilution into the assay. The final assay concentrations in the 50 uL reactions were 15 uM of (1S)-1-carboxy-5-[(2,4-dinitrophenyl)amino]pentyl N-[(7-methoxy-2-oxo-2H-chromen-4-yl)acetyl]-L-alanyl-L-prolinate substrate, 0.13 nM Human PrCP (CHO) or 0.09 nM Mouse PrCP (CHO), and 2% DMSO.

[2] = test system: rats; conditions: intracerebroventricular; cited from earlier work
[3] = test system: obese, leptin deficient mice; conditions: systemic administration; cited from earlier work

Compound	IC50 [1]	overnight food intake [2]	overnight food intake [3]
O=C(NCCc1ccc(F)cc1)N1CCCC(c2cc(-c3ccc(F)cc3)nn2-c2ncccn2)C1 (stereo not shown) [Example 82]	27 nM	–	–
O=C(CC1CCCCC1)N1CCCC(c2cc(-c3ccc(F)cc3)nn2-c2ncccn2)C1 (stereo not shown) [Example 36]	30 nM	–	–
COC(=O)N1C[C@@H](c2cc(-c3ccc(Cl)cc3)nn2-c2ncccn2)CC[C@@H]1c1ccccc1 (mixture of isomers) [Example 13]	1.3 nM	–	–
t-butyl carbamate-prolyl prolinal [BPP]	–	suppression of overnight food intake	suppression of overnight food intake
O=C(Cc1ccccc1C(F)(F)F)N1CCCC(c2cc(-c3ccc(F)cc3)nn2-c2ncccn2)C1 (stereo not shown) [Example 20]	0.65 nM	–	–
O=S(=O)(CCC(F)(F)F)N1CCCC(c2cc(-c3ccc(F)cc3)nn2-c2ncccn2)C1 (stereo not shown) [Example 109]	4.5 nM	–	–
CNC(=O)N1C[C@@H](c2cc(-c3ccc(F)cc3)nn2-c2ncccn2)CC[C@@H]1c1ccccc1 (mixture of isomers) [Example 95]	10 nM	–	–
Fc1ccc(-c2cc([C@H]3CC[C@H](c4ccccc4)NC3)n(-c3ncccn3)n2)cc1 (mixture of isomers) [Example 4]	4.1 nM	–	–
Fc1ccc(-c2cc([C@@H]3CC[C@H](CCc4ccccc4)NC3)n(-c3ncccn3)n2)cc1 (racemic) [Example 6, 2-{3-(4-Fluorophenyl)-5-[6-(2-phenylethyl)piperidin-3-yl]-1H-pyrazol-1-yl}pyrimidine]	2.1 nM	–	–
O=C(Cc1cccc2ccccc12)N1CCCC(c2cc(-c3ccc(F)cc3)nn2-c2ncccn2)C1 (stereo not shown) [Example 17]	1.2 nM	–	–
CC(C)(C)OC(=O)N1C[C@H](c2cc(-c3ccc(F)cc3)nn2-c2ncccn2)CC[C@@H]1CCc1ccccc1 (racemic) [Example 5, tert-Butyl 5-[3-(4-fluorophenyl)-1-(pyrimidin-2-yl)-1H-pyrazol-5-yl]-2-(2-phenylethyl)piperidine-1-carboxylate]	8 nM	–	–
Clc1ccc(-c2cc(C3CNC(CCc4ccccc4)CO3)n(-c3ncccn3)n2)cc1 (single isomer, unassigned) [Example 8, 2-[3-(4-Chlorophenyl)-1-(pyrimidin-2-yl)-1H-pyrazol-5-yl]-5-(2-phenylethyl)morpholine]	12 nM	–	–
